# From PubChem BioAssay (NCI)
#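 These data come from cells grown in 96-well plates and exposed to compound for 48 hours at five concentrations. The concentration for 50% growth inhibition is given as GI50. TGI is the concentration that stops growth completely.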
# How the values were obtained:
# Assay in all cases: NCI tumour cell line growth inhibition, 48 h
# A549 NSCLC = tested on: A549 NSCLC
# MALME-3M melanoma = tested on: MALME-3M melanoma
# SR leukemia = tested on: SR leukemia
# HCC-2998 colon = tested on: HCC-2998 colon
# ACHN renal = tested on: ACHN renal
# SW-620 colon = tested on: SW-620 colon
# LOX IMVI melanoma = tested on: LOX IMVI melanoma
# SF-268 CNS = tested on: SF-268 CNS
# OVCAR-4 ovarian = tested on: OVCAR-4 ovarian
# OVCAR-8 ovarian = tested on: OVCAR-8 ovarian
# COLO 205 colon = tested on: COLO 205 colon
# NCI-H226 lung = tested on: NCI-H226 lung
# SF-295 CNS = tested on: SF-295 CNS
# SN12C renal = tested on: SN12C renal
# CAKI-1 renal = tested on: CAKI-1 renal
# UACC-62 melanoma = tested on: UACC-62 melanoma
# HCT-116 colon = tested on: HCT-116 colon
# MDA-MB-231 breast = tested on: MDA-MB-231 breast
# BT-549 breast = tested on: BT-549 breast
# SNB-19 CNS = tested on: SNB-19 CNS
# TK-10 renal = tested on: TK-10 renal
# HT29 colon = tested on: HT29 colon
# 786-0 renal = tested on: 786-0 renal
# SF-539 CNS = tested on: SF-539 CNS
# RXF 393 renal = tested on: RXF 393 renal
# HOP-62 NSCLC = tested on: HOP-62 NSCLC
# SNB-75 CNS = tested on: SNB-75 CNS
# K-562 leukemia = tested on: K-562 leukemia
# SK-OV-3 ovarian = tested on: SK-OV-3 ovarian
compound,measurement,setting,value
CCN(CCCNC(=O)Cc1cc(=O)oc2cc(N(C)C)ccc12)CCNc1ccnc2cc(Cl)ccc12,TGI,A549 NSCLC,28.6 µM
same,GI50,MALME-3M melanoma,1.83 µM
same,TGI,MALME-3M melanoma,3.86 µM
same,GI50,SR leukemia,2.6 µM
same,TGI,SR leukemia,6.64 µM
same,GI50,HCC-2998 colon,7.87 µM
same,TGI,HCC-2998 colon,21.3 µM
same,GI50,ACHN renal,9.21 µM
same,TGI,ACHN renal,24.3 µM
same,GI50,SW-620 colon,5.84 µM
same,TGI,SW-620 colon,19.4 µM
same,GI50,LOX IMVI melanoma,2 µM
same,TGI,LOX IMVI melanoma,5.01 µM
same,GI50,SF-268 CNS,11.3 µM
same,TGI,SF-268 CNS,30.5 µM
same,GI50,OVCAR-4 ovarian,15 µM
same,TGI,OVCAR-4 ovarian,41.4 µM
same,GI50,OVCAR-8 ovarian,8.29 µM
same,TGI,OVCAR-8 ovarian,61.7 µM
same,GI50,COLO 205 colon,6.54 µM
same,TGI,COLO 205 colon,20.8 µM
same,GI50,NCI-H226 lung,10.9 µM
same,TGI,NCI-H226 lung,34.4 µM
same,GI50,SF-295 CNS,12.4 µM
same,TGI,SF-295 CNS,27.6 µM
same,GI50,SN12C renal,13.9 µM
same,TGI,SN12C renal,36 µM
same,GI50,CAKI-1 renal,15.6 µM
same,TGI,CAKI-1 renal,39.5 µM
same,GI50,UACC-62 melanoma,3.36 µM
same,TGI,UACC-62 melanoma,11.9 µM
same,GI50,HCT-116 colon,4.86 µM
same,TGI,HCT-116 colon,17 µM
same,GI50,MDA-MB-231 breast,3.47 µM
same,TGI,MDA-MB-231 breast,16.9 µM
same,GI50,BT-549 breast,14.4 µM
same,TGI,BT-549 breast,34.6 µM
same,GI50,SNB-19 CNS,18.9 µM
same,TGI,SNB-19 CNS,52.7 µM
same,GI50,TK-10 renal,6.46 µM
same,TGI,TK-10 renal,20.3 µM
same,GI50,HT29 colon,3.39 µM
same,TGI,HT29 colon,12.1 µM
same,GI50,786-0 renal,16 µM
same,TGI,786-0 renal,36.8 µM
same,GI50,SF-539 CNS,1.69 µM
same,TGI,SF-539 CNS,3.42 µM
same,GI50,RXF 393 renal,1.72 µM
same,TGI,RXF 393 renal,5.15 µM
same,GI50,HOP-62 NSCLC,13.2 µM
same,TGI,HOP-62 NSCLC,32.5 µM
same,GI50,SNB-75 CNS,6.44 µM
same,TGI,SNB-75 CNS,25.6 µM
same,GI50,K-562 leukemia,2.78 µM
same,TGI,K-562 leukemia,7.56 µM
same,GI50,SK-OV-3 ovarian,23.9 µM
same,TGI,SK-OV-3 ovarian,56.5 µM
